According to patent publication US7642249B2, “Dihydrogen phosphate salt of a prostaglandin D2 receptor antagonist” (Aventis Pharmaceuticals Inc., priority 2005, dated 2010):
Values after ≈ are worked out from the molar mass of the structure shown. Counter-ions that a name gives are not always drawn.

Columns and labels:
Type in all cases: physicochemical
[1] = Dynamic water vapor sorption (DVS) hygroscopicity; conditions: at 94% relative humidity (RH)
Experimental: Dynamic Water Vapor Sorption (DVS)
The water sorption profile is determined using a SMS Instruments Dynamic Vapor Sorption Analyzer Model DVS-1 or VTI Instruments Model SGA-100 Dynamic Vapor Sorption Analyzer. RH and weight are calibrated using standards. The dihydrogen phosphate salt is loaded and dried at ≦1% RH for 2.5 hours prior to starting the experiment. The RH is stepped from about 0 to 95% RH. The specimen weight is considered constant at each step when percent mass change is less than 0.005% over a 5-minute interval with a minimum absolute equilibration time of 15 minutes.

[2] = Solubility in phosphate buffer (PBS pH 7.4)
Experimental: (§1) The dihydrogen phosphate salt has increased aqueous solubility over the free form and the hydrochloride salt. The following chart lists the solubilities of the free form, the hydrochloride salt and the dihydrogen phosphate salt at 25° C. in phosphate buffer (PBS pH 7.4, a mixture of 19% of a 0.1M monobasic sodium phosphate solution and 81% of a 0.1M dibasic sodium phosphate solution) and the solubilities of the free form and the dihydrogen phosphate salt 37° C. in a simulated intestinal fluid under fasted conditions (“FaSSIF”, prepared according to Dressman J. B., Amidon G. L., Reppas C. and Shah V. P., Dissolution testing as a prognostic tool for oral drug absorption: immediate release dosage forms, Pharmaceutical Research: 1998, Vol. 15, No. 1, 11-22).

[3] = Solubility in simulated intestinal fluid under fasted conditions (FaSSIF)
Experimental: as §1

Structure (SMILES) | weight gain during the sorption (DVS) [1] [%] | Solubility (PBS pH 7.4, 25° C., μg/mL) [2] [μg/mL] | Solubility in FaSSIF (37° C., ug/mL) [3] [µg/mL]
COc1nc(NCCc2ccc(Cl)cc2Cl)cc(-c2cccc(C(C)(C)C(=O)O)c2)n1 [Dihydrogen phosphate salt, Dihydrogen phosphate salt of 2-(3-{6-[2-(2,4-Dichloro-phenyl)-ethylamino]-2-methoxy-pyrimidin-4-yl}-phenyl)-2-methyl-propionic acid] | ~0.9 | 15 | 266
COc1nc(NCCc2ccc(Cl)cc2Cl)cc(-c2cccc(C(C)(C)C(=O)O)c2)n1 [Free form, 2-(3-{6-[2-(2,4-dichloro-phenyl)-ethylamino]-2-methoxy-pyrimidin-4-yl}-phenyl)-2-methyl-propionic acid] | – | <1 | 14 (≈ 30.4 µM)
COc1nc(NCCc2ccc(Cl)cc2Cl)cc(-c2cccc(C(C)(C)C(=O)O)c2)n1 [Hydrochloride salt, 2-(3-{6-[2-(2,4-dichloro-phenyl)-ethylamino]-2-methoxy-pyrimidin-4-yl}-phenyl)-2-methyl-propionic acid] | – | 5 | –
